Reference: patent publication US20240352055A1, “PROCESS FOR THE MANUFACTURE OF (2S,3S,4S,5R,6S)-3,4,5-TRIHYDROXY-6-(((4AR,10AR)-7-HYDROXY-1-PROPYL-1,2,3,4,4A,5,10,10A-OCTAHYDROBENZO[G]QUINOLIN-6-YL)OXY)TETRAHYDRO-2H-PYRAN-2-CARBOXYLIC ACID” (H. LUNDBECK A/S, priority 2019, published 2024)
Read-outs that look alike come from different tables or passages of the source.

Experiments:
human D2 receptor = human D2 receptor (Homo sapiens (Human), UniProt P14416); assay: Dopamine D2 receptor agonism, calcium mobilization assay; format: cell-based; conditions: HEK293/G15 cells expressing human D2 receptor; calcium flux
Chain of human D2 receptor (P14416 whole entry): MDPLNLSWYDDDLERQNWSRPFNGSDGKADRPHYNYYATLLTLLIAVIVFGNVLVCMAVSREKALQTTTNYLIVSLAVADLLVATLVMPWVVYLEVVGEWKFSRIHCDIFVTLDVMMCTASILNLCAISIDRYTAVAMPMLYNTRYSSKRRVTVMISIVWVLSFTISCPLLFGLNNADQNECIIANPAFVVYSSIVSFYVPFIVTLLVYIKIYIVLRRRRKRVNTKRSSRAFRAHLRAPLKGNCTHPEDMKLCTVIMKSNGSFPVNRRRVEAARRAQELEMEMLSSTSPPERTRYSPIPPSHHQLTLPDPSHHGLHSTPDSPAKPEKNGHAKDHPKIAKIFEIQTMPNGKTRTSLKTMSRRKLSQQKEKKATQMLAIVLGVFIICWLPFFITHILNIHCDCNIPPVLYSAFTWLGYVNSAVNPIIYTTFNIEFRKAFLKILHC
Description: Dopamine D2 receptor agonism was measured using a calcium mobilization assay protocol developed by HD Biosciences (China). Briefly, HEK293/G15 cells expressing human D2 receptor were plated at a density of 15000 cells/well in clear-bottomed, Matrigel-coated 384-well plates and grown for 24 hours at 37° C. in the presence of 5% CO2. The cells were incubated with calcium-sensitive fluorescent dye, Fluo8, for 60-90 minutes at 37° C. in the dark. Test compounds were prepared at 3-fold concentrated solution in 1×HBSS buffer with Ca^2. and Mg^2+. Calcium Flux signal was immediately recorded after compounds were added from compound plate to cell plate at FLIPR (Molecular Devices). The fluorescence data were normalized to yield responses for no stimulation (buffer) and full stimulation (1 μM of dopamine) of 0% and 100%. stimulation, respectively. Test compound potency (EC50) was estimated by nonlinear regression using the sigmoidal dose-response (variable slope) using Xlfit 4 (IDBS, Guildford, Surrey, UK, model 205).
(§1) where y is the normalized ratio measurement for a given concentration of test compound, x is the concentration of test compound, A is the estimated efficacy at infinite compound dilution, and B is the maximal efficacy. C is the EC50 value and D is the Hill slope coefficient. EC50 estimates were obtained from independent experiment and the logarithmic average was calculated.

human D1 receptor = human D1 receptor (Homo sapiens (Human), UniProt P21728); assay: Dopamine D1 receptor agonism, HTRF cAMP assay; format: cell-based
Chain of human D1 receptor (P21728 whole entry): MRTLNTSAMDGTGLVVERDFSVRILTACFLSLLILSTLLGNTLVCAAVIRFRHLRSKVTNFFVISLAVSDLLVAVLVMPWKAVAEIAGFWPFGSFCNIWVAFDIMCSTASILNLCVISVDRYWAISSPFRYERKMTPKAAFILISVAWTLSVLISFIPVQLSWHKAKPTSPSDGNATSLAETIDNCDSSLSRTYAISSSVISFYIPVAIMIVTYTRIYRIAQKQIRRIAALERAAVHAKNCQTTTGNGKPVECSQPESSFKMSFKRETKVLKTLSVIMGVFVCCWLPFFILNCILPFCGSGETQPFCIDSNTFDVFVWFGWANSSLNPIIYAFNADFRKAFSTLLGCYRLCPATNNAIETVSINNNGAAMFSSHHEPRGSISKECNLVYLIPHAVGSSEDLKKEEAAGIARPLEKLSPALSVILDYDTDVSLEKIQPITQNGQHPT
Description: Dopamine D1 receptor agonism was measured using a HTRF cAMP from CisBio using the protocol developed by HD Biosciences (China). Briefly, the assay is a homogeneous time resolved-fluorescence resonance energy transfer (HTRF) assay that measures production of cAMP by cells in a competitive immunoassay between native cAMP produced by cells and cAMP-labeled with XL-665. A cryptate-labeled anti-cAMP antibody visualizes the tracer. The assay was performed in accordance with instructions from manufacturer.
Test compounds were added to wells of microplates (384 format). HEK-293 cells expressing the human D1 receptor were plated at 1000 cells/well and incubated 30 minutes at room temperature. cAMP-d2 tracer was added to wells and followed by addition of Anti-cAMP antibody-cryptate preparation and incubated for 1 hour at room temperature in dark. HTRF cAMP was measured by excitation of the donor with 337 nm laser (the “TRF light unit”) and subsequent (delay time 100 microseconds) measurement of cryptate and d2 emission at 615 nm and 665 nm over a time window of 200 microseconds with a 2000 microseconds time window between repeats/100 flashes). HTRF measurements were performed on an Envision microplate reader (PerkinElmer). The HTRF signal was calculated as the emission-ratio at 665 nm over 615 nm. The HTRF ratio readout for test compounds was normalized to […] and 100% stimulation using control wells with DMSO-solvent or 30 μM dopamine. Test compound potency (EC50) was estimated by nonlinear regression using the sigmoidal dose-response (variable slope) using Xlfit 4 (IDBS, Guildford, Surrey, UK, model 205).
y=(A+((B−A)/(1+((C/x)^D))))
as §1, with “normalized HTRF” for “normalized”, “from an” for “from”

human 5-HT2B receptor = human 5-HT2B receptor (Homo sapiens (Human), UniProt P41595); assay: 5-HT2B agonist activity assay (IP1 production, HTRF); format: cell-based; conditions: for EC50: CHO cells expressing human 5-HT2B, IP1 production; for 5-HT2B agonist effect at single concentration: percent of control response to 1 μM 5-HT
Chain of human 5-HT2B receptor (P41595 whole entry): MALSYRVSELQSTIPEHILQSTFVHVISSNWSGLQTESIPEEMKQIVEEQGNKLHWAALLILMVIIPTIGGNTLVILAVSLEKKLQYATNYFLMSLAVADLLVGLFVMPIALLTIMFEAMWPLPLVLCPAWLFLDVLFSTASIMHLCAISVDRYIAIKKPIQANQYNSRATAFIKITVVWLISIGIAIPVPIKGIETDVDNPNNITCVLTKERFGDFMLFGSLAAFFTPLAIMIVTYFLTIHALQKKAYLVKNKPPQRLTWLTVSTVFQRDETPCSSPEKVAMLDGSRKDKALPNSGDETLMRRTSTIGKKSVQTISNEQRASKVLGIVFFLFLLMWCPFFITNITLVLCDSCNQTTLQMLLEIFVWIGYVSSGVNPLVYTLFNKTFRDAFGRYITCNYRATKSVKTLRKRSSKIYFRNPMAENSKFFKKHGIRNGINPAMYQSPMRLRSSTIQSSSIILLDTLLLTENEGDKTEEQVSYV
Description: Evaluation of the agonist activity of compounds (I), (Ia)(Ib), (Ic), and (Id) at the human 5-HT2B receptor was performed by Eurofins/Cerep (France) measuring the compound effects on inositol monophosphate (IP1) production using the HTRF detection method. Briefly, the human 5-HT2B receptor was expressed in transfected CHO cells. The cells were suspended in a buffer containing 10 mM Hepes/NaOH (pH 7.4), 4.2 mM KCl, 146 mM NaCl, 1 mM CaCl2, 0.5 mM MgCl2, 5.5 mM glucose and 50 mM LiCl, then distributed in microplates at a density of 4100 cells/well and incubated for 30 minutes at 37° C. in the presence of buffer (basal control), test compound or reference agonist. For stimulated control measurement, separate assay wells contained 1 μM 5-HT. Following incubation, the cells were lysed and the fluorescence acceptor (fluorophen D2-labeled IP1) and fluorescence donor (anti-IP1 antibody labeled with europium cryptate) were added. After 60 minutes at room temperature, the fluorescence transfer was measured at lambda (Ex) 337 nm and lambda(Em) 620 and 665 nm using a microplate reader (Rubystar, BMG). The IP1 concentration was determined by dividing the signal measured at 665 nm by that measured at 620 nm (ratio). The results were expressed as a percent of the control response to 1 μM 5-HT. The standard reference agonist was 5-HT, which was tested in each experiment at several concentrations to generate a concentration-response curve from which its EC50 value is calculated as described above for dopamine functional assays.

[1] = Liu et al., Bioorganic Med. Chem. (2008); cited from earlier work
[2] = PK experiments in rats: plasma compound (I) after oral dosing of prodrugs; format: in vivo, Han Wistar rats; conditions: Wistar rats, oral dosing of the prodrug
Description: Plasma was placed on water-ice following collection. Final storage at approximately −70° C.
Instrumentation Used for Analysis of Compound (I) from Dosing Compound (Ia):
Mobile phase B: Acetonitrile. […] Flow rate 0.5 mL/min.
The rats had unrestricted access to the diet.
Instrumentation Used for Analysis of Compound (I) from Dosing of Compound (Ib):
Mobile phase B: Acetonitrile+0.2% formic acid. […] Flow rate 0.3 mL/min.
Dosing and blood sampling for compound (Ic): Han Wistar rats were supplied by Envigo, UK. […] The rats received a standard laboratory diet Teklad 2014C. The rats had unrestricted access to the diet. […] Rats were given 494 μg/kg (Ic).

locomotor activity = assay: Rat locomotor activity (hyperactivity) assay, open field; format: in vivo, male CD rats; conditions: for Onset of increased locomotor activity post-administration / End of locomotor effect, time post administration: (Id) 10 to 300 μg/kg p.o.; for End of locomotor effect, time post administration: recording to the 415-minute time point
Description: In total, 206 male CD rats (Charles River, Germany) weighing 200-250 grams (165-190 grams upon arrival) were used in the study. Animals were housed at a standard temperature (22±1° C.) and in a light-controlled environment (lights on from 7 am to […]) with ad libitum access to food and water. The experiment described below was performed in accordance with the standard operating procedures of Charles River Discovery Research Services Finland Ltd. and in accordance with the national Animal Experiment Board of Finland (Eläinkoelautakunta, ELLA) authority on animal testing.
The test device is a square Plexiglass-arena (measuring 40×40×40 cm), in which the movement paths of the rats are recorded by an activity monitor (Med. Associates Inc.). Before the test period is initiated, rats are habituated to their test cage for 60 minutes. Upon completion of habituation, animals were treated with either compound or vehicle and placed back into the open field apparatus. The main test parameter measured is ambulatory distance (recorded in 5 minute segments). Overall time of measurement after receiving initial treatment was 360 minutes. Total follow up period in the study was 420 minutes, including 60 minutes of habituation.
Apomorphine and pramipexole were also concomitantly tested in this assay as comparators (i.e. known standard-of-care (SoC) in the Parkinson's Disease field), and plasma concentration was analyzed for apomorphine.

[3] = Conversion of compound (Id) to compound (I) in rat hepatocytes; format: in vitro ADME; conditions: 1 μg/mL, 37° C., up to 60 minutes
Description: (§2) The cell concentration at incubation was 1×10^6 viable cells/mL. The incubations were performed in glass tubes at 37° C. with a total incubation volume of 3.5 mL and with duplicate incubations for each test item. The 3.5 mL of hepatocyte suspension was equilibrated for 10 minutes in a water bath set to 37° C. where after the incubations were initiated by adding 3.5 μL of a stock solution of the test item in DMSO (Dimethyl sulfoxide) and gently inverting the tubes. The final solvent concentration in the incubations was 0.1% DMSO. Samples of 600 μL were withdrawn from the incubations at the pre-determined time points of 0.25, 5, 15, 30 and 60 minutes after ensuring homogeneity of hepatocyte suspensions. The withdrawn volume was added to 1 mL Nunc cryotubes on wet ice containing 60 μL of ice-cold ascorbic acid (100 mg/mL) and 30 μL of ice cold 100 mM saccharic acid 1.4-lactone in 0.5 M citric acid. The tubes were mixed and 35 μL of a solution of ice cold 20% formic acid was added. The tubes were mixed thoroughly and stored at −80° C. awaiting analysis.

[4] = In vivo conversion of compound (Id) to compound (I) after oral dosing in minipigs
[5] = Conversion of compound (Id) to compound (I) in human hepatocytes; format: in vitro ADME; conditions: 1 μg/mL, 37° C., up to 60 minutes
Description: as §2

[6] = Conversion of compound (Id) to compound (I) in fresh human blood; format: in vitro ADME; conditions: 1 μg/mL, 37° C., up to 60 minutes
Description: (§3) Conversion of (Id) in human blood (average of 3 donors) and rat blood (average of […]) to (1) was shown in fresh blood at 37° C. spiked with 1 μg/mL of (Id). (1) was measured at 0, 5, 15, 30 and 60 minutes in isolated plasma. Analysis method and Instrumentation as described in Examples 9 and 10 below in the section “Instrumentation used for analysis of compound (I) from dosing of compounds (Ic) and (d).”

[7] = Conversion of compound (Id) to compound (I) in fresh rat blood; format: in vitro ADME; conditions: 1 μg/mL, 37° C., up to 60 minutes
Description: as §3

[8] = in man after oral dosing; cited from earlier work
[9] = HEK-293 cells expressing human D1 receptor, cAMP HTRF, read-out: D1 EC50
[10] = apomorphine 3 mg/kg s.c., pramipexole 0.3 mg/kg s.c.

Structure (SMILES)	EC50 (human D2 receptor) [nM]	EC50 (human D1 receptor; [9]) [nM]	EC50 (human 5-HT2B receptor) [nM]	Plasma profile of compound (I) after oral dosing (in words) [2]	Onset of increased locomotor activity post-administration (locomotor activity; [10])	also measured
CCCN1CCC[C@@H]2Cc3c(ccc(O)c3O)C[C@H]21 [Compound (I), (4aR,10aR)-1-Propyl-1,2,3,4,4a,5,10,10a-octahydro-benzo[g]quinoline-6,7-diol]	1.3	3.3	2900	–	–	Oral bioavailability (in words) [1]: low oral bioavailability
CCCN1CCC[C@@H]2CC3=C(CCCC3=O)C[C@H]21 [Compound (Ia)]	> 1000	> 1000	> 6000	early and high peak concentrations of compound (I)	–	5-HT2B agonist effect at single concentration (human 5-HT2B receptor; @30 μM): 58%
CCCN[C@H]1CCc2nc(N)sc2C1 [Pramipexole, pramipexole]	–	–	–	–	about 1 hours	Locomotor effect gone, time after its appearance (locomotor activity; pramipexole 0.3 mg/kg s.c., at the 270-minute time point): 2.5 h
CCCN1CCC[C@@H]2Cc3c(ccc(O)c3O[C@@H]3O[C@H](C(=O)O)[C@@H](O)[C@H](O)[C@H]3O)C[C@H]21 [Compound (Id), (2S,3S,4S,5R,6S)-3,4,5-trihydroxy-6-(((4aR,10aR)-7-hydroxy-1-propyl-1,2,3,4,4a,5,10,10a-octahydrobenzo[g]quinolin-6-yl)oxy)tetrahydro-2H-pyran-2-carboxylic acid]	1100	2700	–	slower absorption rate avoiding rapid peak concentrations accompanied by a sustained exposure of compound (I) in plasma	~2 h	End of locomotor effect, time post administration (locomotor activity; apomorphine 3 mg/kg s.c.): lasting until the end of recording; Total distance travelled (locomotor activity; versus vehicle, (Id) 10-300 μg/kg p.o., apomorphine 3 mg/kg s.c., pramipexole 0.3 mg/kg s.c.): significantly increased activity; Conversion to compound (I) [3]: time dependent conversion; In vivo conversion to compound (I) [4]: observed; Conversion to compound (I) [5]: time dependent conversion; Conversion to compound (I) [6]: time dependent conversion; Conversion to compound (I) [7]: time dependent conversion
CCCN1CCC[C@@H]2Cc3c(ccc4c3OCO4)C[C@H]21 [Compound (Ib)]	46	–	3.8	early and high peak concentrations of compound (I)	–	EC50 (human D1 receptor): > 1000 nM; 5-HT2B receptor agonism (in words) (human 5-HT2B receptor): agonist of the 5-HT2B receptor
CCCc1cc2c(s1)CN[C@@H]1CCc3cc(OC(C)=O)c(OC(C)=O)cc3[C@@H]21 [adrogolide]	–	–	–	–	–	Oral bioavailability [8]: ~4%
CCCN1CCC[C@@H]2Cc3c(ccc(OC(=O)C(C)(C)C)c3OC(=O)C(C)(C)C)C[C@H]21 [(Ic)]	–	–	–	extremely low	–	5-HT2B agonist effect at single concentration (human 5-HT2B receptor; @10 μM): −5%@10 μM
CN1CCc2cccc3c2[C@H]1Cc1ccc(O)c(O)c1-3 [apomorphine]	–	–	–	–	immediate	End of locomotor effect, time post administration (locomotor activity; apomorphine 3 mg/kg s.c.): 1.5 h
